Test results as given in ChEMBL document CHEMBL1201862, “PubChem BioAssay data set” (2004).
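Growth conditions: 96-well plates. Treatment: test compound, 48 hours, 5 concentrations. Analysis: linear interpolation between bracketing concentrations; unreached endpoints set to highest concentration. GI50 = concentration required for 50% inhibition of growth.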 Active and inactive are the calls of the source. Cut-off read from the data, not from the text of the source: active = GI50 up to about 1.1 µM and inactive = higher.

What was measured:
Test in all cases: NCI-60 cell line screen, 48 h
786-0 = tested on: 786-0
A498 = tested on: A498
A549 = tested on: A549
ACHN = tested on: ACHN
BT-549 = tested on: BT-549
CAKI-1 = tested on: CAKI-1
CCRF-CEM = tested on: CCRF-CEM
COLO 205 = tested on: COLO 205
DU-145 = tested on: DU-145
EKVX = tested on: EKVX
HCC 2998 = tested on: HCC 2998
HCT-116 = tested on: HCT-116
HCT-15 = tested on: HCT-15
HL-60 = tested on: HL-60
HOP-92 = tested on: HOP-92
HT-29 = tested on: HT-29
Hs-578T = tested on: Hs-578T
IGROV-1 = tested on: IGROV-1
K562 = tested on: K562
KM12 = tested on: KM12
LOX IMVI = tested on: LOX IMVI
M14 = tested on: M14
MCF7 = tested on: MCF7
MDA-MB-231 = tested on: MDA-MB-231
MDA-MB-435 = tested on: MDA-MB-435
MDA-N = tested on: MDA-N
MOLT-4 = tested on: MOLT-4
Malme-3M = tested on: Malme-3M
NCI-H226 = tested on: NCI-H226
NCI-H23 = tested on: NCI-H23
NCI-H460 = tested on: NCI-H460
NCI-H522 = tested on: NCI-H522
NCI/ADR-RES = tested on: NCI/ADR-RES
OVCAR-3 = tested on: OVCAR-3
OVCAR-4 = tested on: OVCAR-4
OVCAR-5 = tested on: OVCAR-5
OVCAR-8 = tested on: OVCAR-8
PC-3 = tested on: PC-3
RXF 393 = tested on: RXF 393
SF-268 = tested on: SF-268
SF-295 = tested on: SF-295
SF-539 = tested on: SF-539
SK-MEL-28 = tested on: SK-MEL-28
SK-MEL-2 = tested on: SK-MEL-2
SK-MEL-5 = tested on: SK-MEL-5
SK-OV-3 = tested on: SK-OV-3
SN12C = tested on: SN12C
SNB-19 = tested on: SNB-19
SNB-75 = tested on: SNB-75
SW-620 = tested on: SW-620
T47D = tested on: T47D
TK-10 = tested on: TK-10
U-251 = tested on: U-251
UACC-257 = tested on: UACC-257
UACC-62 = tested on: UACC-62
UO-31 = tested on: UO-31
RPMI-8226 = tested on: RPMI-8226
HOP-62 = tested on: HOP-62

N[C@@H]1c2c(Br)sc(Br)c2[C@H](O)[C@@H]1O
GI50 (786-0): > 100 µM (inactive)
GI50 (A498): > 100 µM (inactive)
GI50 (A549): > 100 µM (inactive)
GI50 (ACHN): > 100 µM (inactive)
GI50 (BT-549): > 100 µM (inactive)
GI50 (CAKI-1): > 100 µM (inactive)
GI50 (CCRF-CEM): > 100 µM (inactive)
GI50 (COLO 205): > 100 µM (inactive)
GI50 (DU-145): > 100 µM (inactive)
GI50 (EKVX): > 100 µM (inactive)
GI50 (HCC 2998): > 100 µM (inactive)
GI50 (HCT-116): > 100 µM (inactive)
GI50 (HCT-15): > 100 µM
GI50 (HL-60): > 100 µM (inactive)
GI50 (HOP-92): > 100 µM (inactive)
GI50 (HT-29): > 100 µM (inactive)
GI50 (Hs-578T): > 100 µM (inactive)
GI50 (IGROV-1): > 100 µM (inactive)
GI50 (K562): > 100 µM (inactive)
GI50 (KM12): > 100 µM (inactive)
GI50 (LOX IMVI): > 100 µM (inactive)
GI50 (M14): > 100 µM (inactive)
GI50 (MCF7): > 100 µM (inactive)
GI50 (MDA-MB-231): > 100 µM (inactive)
GI50 (MDA-MB-435): > 100 µM (inactive)
GI50 (MDA-N): > 100 µM (inactive)
GI50 (MOLT-4): > 100 µM (inactive)
GI50 (Malme-3M): > 100 µM (inactive)
GI50 (NCI-H226): > 100 µM (inactive)
GI50 (NCI-H23): > 100 µM (inactive)
GI50 (NCI-H460): > 100 µM (inactive)
GI50 (NCI-H522): > 100 µM (inactive)
GI50 (NCI/ADR-RES): > 100 µM (inactive)
GI50 (OVCAR-3): > 100 µM (inactive)
GI50 (OVCAR-4): > 100 µM (inactive)
GI50 (OVCAR-5): > 100 µM (inactive)
GI50 (OVCAR-8): > 100 µM (inactive)
GI50 (PC-3): > 100 µM (inactive)
GI50 (RXF 393): > 100 µM (inactive)
GI50 (SF-268): > 100 µM (inactive)
GI50 (SF-295): > 100 µM (inactive)
GI50 (SF-539): > 100 µM (inactive)
GI50 (SK-MEL-28): > 100 µM (inactive)
GI50 (SK-MEL-2): > 100 µM (inactive)
GI50 (SK-MEL-5): > 100 µM (inactive)
GI50 (SK-OV-3): > 100 µM (inactive)
GI50 (SN12C): > 100 µM (inactive)
GI50 (SNB-19): > 100 µM (inactive)
GI50 (SNB-75): > 100 µM (inactive)
GI50 (SW-620): > 100 µM (inactive)
GI50 (T47D): > 100 µM (inactive)
GI50 (TK-10): > 100 µM (inactive)
GI50 (U-251): > 100 µM (inactive)
GI50 (UACC-257): > 100 µM (inactive)
GI50 (UACC-62): > 100 µM (inactive)
GI50 (UO-31): > 100 µM (inactive)

CC1(C)CC2=C(Sc3ccccc3N2)C(=O)C1C(=O)C(=O)Nc1cccc([N+](=O)[O-])c1 (configuration not stated)
GI50 (786-0): > 100 µM (inactive)
GI50 (A498): > 100 µM (inactive)
GI50 (A549): > 100 µM (inactive)
GI50 (ACHN): > 100 µM (inactive)
GI50 (BT-549): > 100 µM (inactive)
GI50 (CAKI-1): > 100 µM (inactive)
GI50 (CCRF-CEM): 0.0738 µM (active)
GI50 (COLO 205): > 100 µM (inactive)
GI50 (DU-145): > 100 µM (inactive)
GI50 (EKVX): > 100 µM (inactive)
GI50 (HCC 2998): > 100 µM (inactive)
GI50 (HCT-116): > 100 µM (inactive)
GI50 (HCT-15): > 100 µM
GI50 (HL-60): > 100 µM (inactive)
GI50 (HOP-92): > 100 µM (inactive)
GI50 (HT-29): > 100 µM (inactive)
GI50 (Hs-578T): > 100 µM (inactive)
GI50 (IGROV-1): > 100 µM (inactive)
GI50 (K562): 66.8 µM (inactive)
GI50 (KM12): 44 µM (inactive)
GI50 (LOX IMVI): > 100 µM (inactive)
GI50 (M14): > 100 µM (inactive)
GI50 (MCF7): > 100 µM (inactive)
GI50 (MDA-MB-231): 99.3 µM (inactive)
GI50 (MDA-MB-435): > 100 µM (inactive)
GI50 (MDA-N): > 100 µM (inactive)
GI50 (MOLT-4): 33 µM (inactive)
GI50 (Malme-3M): > 100 µM (inactive)
GI50 (NCI-H226): > 100 µM (inactive)
GI50 (NCI-H23): > 100 µM (inactive)
GI50 (NCI-H460): > 100 µM (inactive)
GI50 (NCI-H522): > 100 µM (inactive)
GI50 (NCI/ADR-RES): > 100 µM (inactive)
GI50 (OVCAR-3): 85.5 µM (inactive)
GI50 (OVCAR-4): 82.4 µM (inactive)
GI50 (OVCAR-5): > 100 µM (inactive)
GI50 (OVCAR-8): > 100 µM (inactive)
GI50 (PC-3): 75.9 µM (inactive)
GI50 (RPMI-8226): 64.6 µM (inactive)
GI50 (SF-268): > 100 µM (inactive)
GI50 (SF-295): > 100 µM (inactive)
GI50 (SF-539): > 100 µM (inactive)
GI50 (SK-MEL-28): > 100 µM (inactive)
GI50 (SK-MEL-2): > 100 µM (inactive)
GI50 (SK-MEL-5): > 100 µM (inactive)
GI50 (SK-OV-3): > 100 µM (inactive)
GI50 (SN12C): > 100 µM (inactive)
GI50 (SNB-19): > 100 µM (inactive)
GI50 (SNB-75): > 100 µM (inactive)
GI50 (SW-620): > 100 µM (inactive)
GI50 (T47D): > 100 µM (inactive)
GI50 (TK-10): > 100 µM (inactive)
GI50 (U-251): > 100 µM (inactive)
GI50 (UACC-257): > 100 µM (inactive)
GI50 (UACC-62): 98.2 µM (inactive)
GI50 (UO-31): > 100 µM (inactive)

Cc1c([C@H](C)[C@@H]2NC[C@@H](C)C[C@H]2O)ccc2c1C[C@H]1[C@H]2CC=C2C[C@@H](O)CC[C@@]21C [VERATRAMINE]
GI50 (786-0): 17 µM (inactive)
GI50 (A498): 15.2 µM (inactive)
GI50 (A549): 16.7 µM (inactive)
GI50 (ACHN): 15 µM (inactive)
GI50 (BT-549): 21.1 µM (inactive)
GI50 (CAKI-1): 26.6 µM (inactive)
GI50 (CCRF-CEM): 16.1 µM (inactive)
GI50 (COLO 205): 14.4 µM (inactive)
GI50 (DU-145): 27.6 µM (inactive)
GI50 (EKVX): 2.34 µM (inactive)
GI50 (HCC 2998): 13.2 µM (inactive)
GI50 (HCT-116): 14.3 µM (inactive)
GI50 (HCT-15): 20.2 µM
GI50 (HOP-62): 23.4 µM (inactive)
GI50 (HOP-92): 2.07 µM (inactive)
GI50 (HT-29): 13.7 µM (inactive)
GI50 (Hs-578T): 20.6 µM (inactive)
GI50 (IGROV-1): 16.1 µM (inactive)
GI50 (K562): 12.1 µM (inactive)
GI50 (KM12): 14.5 µM (inactive)
GI50 (LOX IMVI): 11.6 µM (inactive)
GI50 (M14): 15.7 µM (inactive)
GI50 (MCF7): 15.4 µM (inactive)
GI50 (MDA-MB-231): 16.4 µM (inactive)
GI50 (MDA-MB-435): 12.9 µM (inactive)
GI50 (MDA-N): 15.7 µM (inactive)
GI50 (MOLT-4): 13.1 µM (inactive)
GI50 (Malme-3M): 16.2 µM (inactive)
GI50 (NCI-H226): 11.9 µM (inactive)
GI50 (NCI-H23): 11.7 µM (inactive)
GI50 (NCI-H460): 16.9 µM (inactive)
GI50 (NCI-H522): 13 µM (inactive)
GI50 (NCI/ADR-RES): 23.4 µM (inactive)
GI50 (OVCAR-3): 15.6 µM (inactive)
GI50 (OVCAR-4): 12.6 µM (inactive)
GI50 (OVCAR-5): 17.8 µM (inactive)
GI50 (OVCAR-8): 21.9 µM (inactive)
GI50 (PC-3): 11.5 µM (inactive)
GI50 (RPMI-8226): 3.29 µM (inactive)
GI50 (RXF 393): 17.5 µM (inactive)
GI50 (SF-268): 27.7 µM (inactive)
GI50 (SF-295): 12.4 µM (inactive)
GI50 (SK-MEL-28): 17.3 µM (inactive)
GI50 (SK-MEL-5): 10.8 µM (inactive)
GI50 (SK-OV-3): 23.8 µM (inactive)
GI50 (SN12C): 20.4 µM (inactive)
GI50 (SNB-19): 27.8 µM (inactive)
GI50 (SNB-75): 17.5 µM (inactive)
GI50 (SW-620): 28.6 µM (inactive)
GI50 (T47D): 12.9 µM (inactive)
GI50 (TK-10): 24.4 µM (inactive)
GI50 (U-251): 14 µM (inactive)
GI50 (UACC-257): 13.2 µM (inactive)
GI50 (UACC-62): 13 µM (inactive)
GI50 (UO-31): 14 µM (inactive)
